# Data reported in US8110543B2, “Anti-invasive and anti-angiogenic compositions” (Angstrom Pharmaceuticals, Inc., priority 1997, dated 2012).
# “Also recorded” adds a separate entry of the source.
# Assays:
# [1] = test system: SMC (aortic smooth muscle cells); assay: In vitro proliferation, SMC; format: cell-based
# Protocol: (§1) Å6 was also tested for its ability to inhibit the proliferation of cells other than endothelial cells in vitro.
# [2] = test system: human prostate cancer line PC-3; assay: Matrigel invasion assay, PC-3 cells; format: cell-based; settings: 5 μM (FIG. 1, FIG. 2)
# Protocol: (§2) Several peptides were tested for anti-invasive capacity in a Matrigel® invasion assay system as indicated above (Kleinman et al., supra; Parish et al., supra). Several invasive human tumor lines (PC-3, MDA-MB-231) and non-human tumors (3LL, Mat B-III) were examined. The rat breast cancer line Mat B III and the human prostate cancer line PC-3 were initially used.
# (§3) Tumor cells (5×10^5/mL, in a volume of 200 μL) in serum-free RPMI 1640 medium were added to a disposable transwell invasion chamber coated with Matrigel® (Becton Dickinson, Lincoln Park, N.J.). The invasion chambers were placed in 24-well tissue culture plates filled with serum-free RPMI-1640 and the plates were placed in an atmosphere of 5% CO2 in humidified air at 37° C. for 48-72 hours. The chambers were then removed, inverted, and the cells which had invaded (and now appeared on the bottom face of the invasion chamber) were fixed and stained using Diff-Quick® (Scientific Products). Cells were counted in 10 different fields on each filter and an average obtained.
# HepG2 = assay: In vitro proliferation, HepG2 cells; format: cell-based
# Protocol: as §1
# Mat B-III = assay: In vitro proliferation, Mat B-III cells; format: cell-based, rat
# Protocol: as §1
# U87 = assay: In vitro proliferation, U87 cells; format: cell-based, human
# Protocol: as §1
# Anti-angiogenic therapy is expected to produce both anti-proliferative and pro-apoptotic effects that would “prime” the tumor chemotherapy with these alkylating agents. The proliferative index in the U87 tumors was evaluated using Ki-67 staining followed by digitization of the staining intensity and quantitation.
# [3] = test system: PC-3 and Mat B III tumor cells
# Mat B-III tumors = assay: Rat syngeneic Mat B-III breast cancer model; format: in vivo
# Protocol: The effects of the compounds are tested on tumor progression in a rat syngeneic model of breast cancer (Xing and Rabbani, 1996). Mat BIII rat breast tumor cells (1×10^6 cells in PBS, 0.1 mL per rat) are inoculated into the mammary fat pads of female Fisher rats. The test compound is dissolved in PBS (200 mM stock), sterile filtered and dispensed in vivo at a dose of up to about 100 mg/kg/day) using a 14-day Alza osmotic mini-pump implanted intraperitoneally at the time of inoculation. Control animals receive vehicle (PBS) alone. Animals are euthanized at day 14 and examined for metastasis in the spleen, lungs, liver, kidney and lymph nodes. In addition, the primary tumors are excised, quantitated, and prepared for immunohistochemistry.
# The rat syngeneic breast cancer system (Xing and Rabbani, 1996) employs Mat BIIIrat breast cancer cells. When Mat B-III cells (1×10^6 cells) are inoculated into the mammary fat pad of female Fisher rats, they form large tumors which metastasize to regional lymph nodes (LNs) and other distal sites within 14-20 days.
# Å6 was initially delivered prophylactically (infusion starting on the day of tumor inoculation) using an Alzet mini-pump that delivered 75 mg/kg/day. […] Metastasis was quantitated by counting the number of macroscopic foci without regard for their size.
# Estrogen receptor-positive Mat B-III tumors were used to test combination treatment with Å6 (75 mg/kg/day) and TAM (3 mg/kg/day). In contrast to previous studies, the Mat B-III tumors (inoculated in the mammary fat pad) were staged to 40-50 mm^3 prior to the initiation of treatment. Treatment was continued for 8 days during which time primary tumor growth was measured using calipers (FIG. 14).
# [4] = test system: MDA-MB-231 human breast cancer cells; assay: Matrigel invasion assay, MDA-MB-231 cells; format: cell-based; settings: FIG. 7
# Protocol: as §2, §3
# uPA = uPA (Homo sapiens, UniProt P00749); assay: uPA activity / activation of plasminogen; format: biochemical
# CHO = assay: In vitro proliferation, CHO cells; format: cell-based
# Protocol: as §1
# 3LL = assay: Matrigel invasion assay, 3LL cells; format: cell-based, mouse; settings: all the cell lines tested
# Protocol: as §2, §3
# plasmin = plasmin (Homo sapiens, UniProt P00747); assay: Plasmin activity; format: biochemical
# [5] = test system: rat breast cancer line Mat B III; assay: Matrigel invasion assay, Mat B-III cells; format: cell-based; settings: FIG. 1 (5 μM), FIG. 7, FIG. 8
# Protocol: as §2, §3
# U87 tumors = assay: U87 glioblastoma orthotopic model; format: in vivo, mice
# Protocol: U87 cells were inoculated into the ventricles of nude mice and treatment was initiated 72 hrs after inoculation. Tumor volume was determined using caliper measurements after euthanasia and necropsy.
# A: Control; B: Å6 only; C: CDDP only; D: Å6+CDDP.
# U87 tumors were surgically inoculated into the cerebral ventricles of mice. The animals were allowed to recover for 72 hours at which time treatment with Å6 (75 mg/kg/day IP bid), CDDP (3 mg/kg/day given every other day from day 4×6 administrations), or a combination of Å6+CDDP was initiated,
# Animals were treated for 21 days at which time they were euthanized and their brains evaluated for the presence of tumor. Transverse sections were stained with hematoxylin and eosin (H&E).
# Tumor sections were also evaluated for microvessel density using antibodies specific for mouse-CD31 in immunostaining. Very few CD31^+ foci were evident in animals treated with the combination of Å6+CDDP.
# Tumors were established as in the previous section, and the same therapeutic regimens were employed. Treatment was discontinued at day 21, and survival was measured. Control animals appeared moribund around day 25 and all of the animals in this group were dead by day 30.
# [6] = Alzet mini-pump 75 mg/kg/day from the day of tumor inoculation
# [7] = comparative analysis of related peptides
# plasmin, sequence (P00747 97-580 limits assumed, species assumed): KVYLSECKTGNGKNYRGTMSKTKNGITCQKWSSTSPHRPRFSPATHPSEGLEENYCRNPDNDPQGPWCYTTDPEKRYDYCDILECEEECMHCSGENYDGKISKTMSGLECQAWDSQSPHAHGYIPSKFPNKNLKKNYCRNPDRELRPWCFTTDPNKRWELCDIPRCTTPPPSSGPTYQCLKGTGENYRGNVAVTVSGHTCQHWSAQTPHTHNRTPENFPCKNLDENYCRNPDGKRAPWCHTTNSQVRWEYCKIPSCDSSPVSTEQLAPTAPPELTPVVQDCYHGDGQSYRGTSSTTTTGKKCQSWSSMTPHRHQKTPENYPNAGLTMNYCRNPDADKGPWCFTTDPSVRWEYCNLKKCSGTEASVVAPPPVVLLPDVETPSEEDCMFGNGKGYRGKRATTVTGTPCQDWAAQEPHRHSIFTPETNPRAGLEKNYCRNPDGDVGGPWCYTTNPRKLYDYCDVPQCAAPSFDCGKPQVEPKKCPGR
# plasmin, sequence (P00747 581-810 limits assumed, species assumed): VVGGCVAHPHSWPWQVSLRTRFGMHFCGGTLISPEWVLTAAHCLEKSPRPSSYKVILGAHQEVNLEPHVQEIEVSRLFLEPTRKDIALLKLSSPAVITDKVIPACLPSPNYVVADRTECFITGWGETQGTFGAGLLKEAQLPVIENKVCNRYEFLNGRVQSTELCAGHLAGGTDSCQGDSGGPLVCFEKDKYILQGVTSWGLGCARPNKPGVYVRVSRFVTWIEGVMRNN
substance,measurement,setting,value
"Ac-KPSSPPEE-NH2 [Å6, CH3CO-Lys-Pro-Ser-Ser-Pro-Pro-Glu-Glu-NH2]","anti-proliferative effect, SMC",[1],No anti-proliferative effects
same,in vitro invasion of PC-3 cells in a Matrigel system,[2],inhibited the invasion
same,"anti-proliferative effect, HepG2",HepG2,No anti-proliferative effects
same,"anti-proliferative effect, Mat B-III",Mat B-III,No anti-proliferative effects
same,"anti-proliferative effect, U87",U87,No anti-proliferative effects; also recorded: did not inhibit
same,potentiation of the anti-proliferative activity of CDDP against U87 cells,U87,did not potentiate
same,potentiation of the pro-apoptotic activity of CDDP,U87,nor did it potentiate
same,cytotoxicity to the cells,[3],not cytotoxic
same,inhibition of cell proliferation,[3]; tumor cells of the invasion assay,nor did it inhibit cell proliferation
same,LN metastasis,Mat B-III tumors; [6],inhibition
same,tumor growth,Mat B-III tumors; [6],inhibition
same,"number of metastases in the spleen, lungs, liver, kidney and lymph nodes",Mat B-III tumors; [7],significant reduction
same,size of the primary tumor,Mat B-III tumors; [7],significant reduction
same,necrosis of the primary tumor periphery,"Mat B-III tumors; histological analysis, Å6-treated rats",50-75%
same,decrease in Factor VIII-positive foci,Mat B-III tumors; tumor sections,40-60%
same,TUNEL assay for apoptosis of tumor cells,Mat B-III tumors; Å6-treated groups,stained positive
same,invasion of MDA-MB-231 cells through Matrigel,[4],inhibits the invasion
same,effect on the activity of uPA directly,uPA,did not affect
same,inhibition of the activation of plasminogen,uPA,no effect
same,"anti-proliferative effect, CHO",CHO,No anti-proliferative effects
same,invasion of 3LL cells through Matrigel,3LL,inhibited
same,effect on the activity of plasmin directly,plasmin,did not affect
same,invasion of Mat B-III cells through Matrigel,[5],optimal; also recorded: inhibits the invasion
same,invasion of Mat B-III cells through Matrigel,[5]; listed as Ac-KPSSPPEE-Am,inhibited the invasion
same,differentiation of the vessels,U87 tumors; qualitative,fewer branching vessels
same,"microvessel density (CD31+ foci), angiogenesis","U87 tumors; tumor sections, mouse-CD31 immunostaining",inhibited angiogenesis to some extent
